The values below come from article PMC12176268, “Structural Features and Photophysical and Antiproliferative Properties of Me2N‑pbt-Cycloplatinated Complexes with Picolinate Ligands” (Inorganic Chemistry, 2025).

Where two headings read alike, the source gives them in different places.

The test system of one series is CT-DNA. Nature of the series: Interaction with CT-DNA by circular dichroism. In kind it is binding, calf. The conditions noted are these: 50 μM CT-DNA, 50 μM cisplatin, 37 °C, 24 h in the dark (positive control). As for the experimental part:
Platinum(II) complexes, such as cisplatin, presenting exchangeable ligands are well known to interact with puric bases of DNA, leading to the formation of intra- and interstrand cross-links and in turn to transcription inhibition, cell cycle arrest, and ultimately cell death. Based on the reactivity in the cell culture medium, the interaction of complexes 1–4 and cisplatin with CT-DNA was investigated by circular dichroism (CD) spectroscopy after incubation at 37 °C for 24 h in the dark or for 4 h incubation and 5 min irradiation at 450 nm, followed by 20 h incubation, following a reported protocol. The CD spectrum of CT-DNA presents a positive peak at 280 nm, assigned to base stacking, and a negative peak at 245 nm, assigned to helicity.
A stock solution of calf thymus DNA (CT-DNA) was prepared in 5 mM TRIS·HCl, and 50 mM NaCl (pH 7.4). The concentration of nucleotides was assayed at 260 nm using ε = 6600 M^–1.cm^–1 (c = 3.38 mM). […] Circular dichroism spectra (238–340 nm, 5 scans) were recorded in a 1 cm path length cell on a J-815 CD spectrometer (JASCO) at 20 °C with 0.1 nm data pitch, 50 nm/min scan speed, and 1 nm bandwidth.
A general note: CD spectra are sensitive to the conformation of chiral molecules.

Series [1] relates to MDA-MB-231. Also on record: method as in earlier work. Conditions: 72 h, dark; footnote b: values taken from ref (number not given); cited from earlier work.
Series [2] deals with A549. Also on record: method as in earlier work. Conditions: 72 h, dark; footnote b: values taken from ref (number not given); cited from earlier work.
Series [3] deals with MCF-10A. Also on record: method as in earlier work. Conditions: 72 h, dark; footnote b: values taken from ref (number not given); cited from earlier work.
Series [4] deals with MDA-MB-231. Put plainly: MTT cell viability assay on MDA-MB-231 cells, dark and 450 nm irradiation. In kind it is cell-based, human. The conditions noted are these: for EC50: MTT. The source says:
(§1) (C∧N) cyclometalated Pt(II) complexes have been previously reported to have strong antiproliferative activities when associated with phenanthroline-based, diphosphine, acyclic diamino carbenes, or picolinate ligands. In particular, (Me2N-pbt)-cyclometalated platinum complexes have been previously reported by some of us to have antiproliferative properties in the micromolar range on a panel of cancer cell lines, prompting us to investigate the anticancer properties of complexes 1–4 in dark conditions and, considering their high quantum yield (ϕΔ) of ^1O2 generation, under irradiation conditions. Due to the poor solubility of the complexes in an aqueous environment, complexes 1–4 were first dissolved in DMSO and diluted in the culture media to reach a final concentration of 1% DMSO when incubated with the cells. All complexes were screened against the so-called “triple-negative” breast cancer cell line MDA-MB-231, lung adenocarcinoma cell line A549, and the noncancerous breast cell line MCF-10A for 72 h in dark conditions and under 5 min irradiation at 450 nm (see Experimental Section for details). The irradiation time was kept short to prevent light-induced toxicity of the energetic wavelength observed at longer irradiation times (data not shown). The measurement of the effective concentration at 50% (EC50) was carried out using the classical MTT assay, and the data are provided in Table .
(§2) In dark conditions, we could notice a strong influence of substituents on the picolinate ligands. […] This can be correlated with its poor stability in the culture medium mentioned above, which might reduce its cellular uptake. […] However, in dark conditions, no particular selectivity for cancer cells could be observed with similar activity measured against the noncancerous cell line MCF-10A. For the “light” experiments, the cells were preincubated with the complexes for 4 h in the dark, irradiated at 450 nm for 5 min, and then put back in the dark until 72 h. The photoactivity index (PI) values, defined as the ratio between the EC50 in dark conditions and the EC50 after irradiation for each cell line, are shown in Figure .
(§3) The human lung adenocarcinoma cell line A549 and human breast cancer cell line MDA-MB-231 were cultivated in DMEM (Dulbecco’s modified Eagle’s medium) containing GlutaMax I supplemented with 10% FBS at 37 °C in a humidified atmosphere and 5% CO2. The noncancerous cell line MCF-10A was maintained in DMEM:F12 (1:1) cell culture media, 5% heat-inactivated horse serum, supplemented with HEPES (20 mM), L-glutamine (2 mM), epidermal growth factor (20 ng/mL), hydrocortisone (500 ng/mL), cholera toxin (100 ng/mL), and insulin (10 μg/mL). Cell viability was evaluated by using a colorimetric method based on the tetrazolium salt MTT [3-(4,5-dimethylthiazol-2-yl)-2,5-diphenyltetrazolium bromide], which is reduced by viable cells to yield purple formazan crystals. Cells were seeded in 96-well plates at a density of 40000 cells/mL (100 μL per well). Stock solutions were prepared in DMSO for complexes 1–4 and in water for cisplatin. […] For dark experiments, after overnight attachment, a dilution series of the compounds was added to the medium, and the cells were incubated for a further 72 h. For the irradiated experiments, after overnight attachment, a dilution series of the compounds was added to the medium, and the cells were preincubated for 4 h. The cells were then irradiated at 450 nm for 5 min with a Kessil Lamp (power: 3 mW/cm^2, 1.13 × 10^–8 Einstein/s at 20 cm distance between the light source and 96-well plate) and the incubation was continued until 72 h. After 72 h, the medium was removed and the cells were incubated with MTT solution in PBS (10 μL of 5 mg/mL) for 2–3 h. The formed purple formazan crystals were dissolved in 100 μL of DMSO by thorough shaking, and the absorbance at 580 nm was read using a microplate reader (FLUOstar OPTIMA, BMG Labtech). Each test was performed with at least 3 replicates and repeated at least 3 times. […]
(Tetrazolium dyes change colour on reduction, which living cells bring about.)

Series [5] relates to A549. Nature of the series: MTT cell viability assay on A549 cells, dark and 450 nm irradiation. Type of series: cell-based, human. Conditions: for EC50: MTT.
Description: as §1, §2, §3

The subject of series [6] is MCF-10A. Put plainly: MTT cell viability assay on noncancerous MCF-10A cells, dark and 450 nm irradiation. Conditions: for EC50: MTT. Type of series: cell-based, human.
Description: as §1, §2, §3

Series [7] can be described thus: Singlet oxygen generation, NIR emission at 1274 nm versus phenalenone. In kind it is physicochemical. Conditions: aerated acetonitrile 5 × 10^–5 M, 298 K, excitation 365 nm, reference phenalenone. The protocol: In aerated DMSO solutions, complexes 1–3 display a fluorescence band only at ca 510 nm, attributed to ^1LL′CT/^1ILCT, due to easy quenching of the phosphorescence by oxygen. However, upon prolonged photoexcitation at 365 nm, a continuous enhancement of the phosphorescence band is observed. Simply irradiating with a hand UV–vis lamp, the initial blue-green emission gradually shifts to the orange enhanced emission. The phosphorescence increases its maximum intensity in ca 15 1, 8 2, or 12 min 3 (Figures and S23). […] This relatively rare behavior has been previously observed by us , and other groups, and is explained by the occurrence of a local sensitization caused by energy transfer from the low-energy triplet to ^3O2-producing singlet ^1O2, which is able to selectively react with the solvent creating a free oxygen microenvironment that switches-on a phosphorescence band due to ^3ILCT at 580 nm. The strong sensitivity of the phosphorescence emission in these complexes encourages us to determine their efficiency as ^1O2 sensitizers. The singlet oxygen generation of complexes 1–3 was examined in acetonitrile solution (5 × 10^–5 M) using a near-infrared detector upon excitation at 365 nm, detecting the characteristic emission profile of ^1O2 at λem ∼ 1274 nm (Figure ).

Series [8] is described as follows: Stability in serum-free DMEM containing 5% DMSO by UV–vis. In kind it is physicochemical. The conditions noted are these: DMEM with 5% DMSO, 25 μM, 37 °C; for stability in serum-free DMEM, UV–vis spectral changes, first 4 h: dark or with 5 min irradiation at 450 nm. An excerpt: The stability of complexes 1–4 was then investigated in more biologically relevant media by UV–visible spectroscopy. First, the stability of the complexes was studied in phosphate-buffered saline (PBS) containing 5% DMSO (Figure S30). […] Only a decrease in the intensity of all bands was observed, which could be attributed to partial aggregation and/or precipitation. […] The stability of complexes 1–4 was next studied in serum-free DMEM cell culture containing 5% DMSO (Figure S31). […] This final species seemed to have spectral features similar to those observed for complex 4 (Figure S31A). […] The similarity of the spectral features of the transformed species in all cases seemed to point to the formation of a common species upon incubation in DMEM, which we tentatively attribute to the decoordination of the picolinate ligands with a substituent-dependent kinetics; the COOH group favored the release of the picolinate ligand, while both NH2 and OH substituents seemed to slow down this process.
The UV–vis spectra of complexes 1–4 were recorded in PBS:DMSO (95/5) and serum-free DMEM:DMSO (95/5) at a concentration of 25 μM on a Cary 50 spectrophotometer (Varian).

A short description of the next series: Solubility (statements). In kind it is physicochemical.
The subject of series [9] is A549. Also on record: method as in not given. Conditions: previously reported by the authors, ref not given, cited from earlier work.
In a further series the test system is HeLa. Also on record: method as in not given. The conditions noted are these: previously reported by the authors, ref not given, cited from earlier work.
The mark [10] stands for this setting: 4 h preincubation, 5 min irradiation at 450 nm, then dark until 72 h, read-out: EC50 MDA-MB-231 light.
The mark [11] stands for this setting: 72 h incubation at 37 °C, dark, read-out: EC50 MDA-MB-231 dark.
Where [12] appears, read: 4 h preincubation, 5 min irradiation at 450 nm, then dark until 72 h, read-out: EC50 A549 light.
Where [13] appears, read: 72 h incubation at 37 °C, dark, read-out: EC50 A549 dark.
The mark [14] stands for this setting: 4 h preincubation, 5 min irradiation at 450 nm, then dark until 72 h, read-out: EC50 MCF-10A light.
Setting [15] is: 72 h incubation at 37 °C, dark, read-out: EC50 MCF-10A dark.

In the case of `N.N.[Cl][Pt][Cl]` [Cisplatin], in the series on CT-DNA, the “modification of the CD spectrum of CT-DNA” value is “decrease of the band at 245 nm and an increase of the band at 280 nm”. In addition, the EC50 (in general, the concentration giving half of the maximal effect) in the series on MDA-MB-231 [1] is 20400 ± 3400 nM; in the series on A549 [2], 1700 ± 500 nM; in the series with MCF-10A [3], 2900 ± 800 nM.
For the compound “[Pt(Me2N-pbt)(3-NH2-pic-κN,O)] [Complex 2]”, the EC50 was 260 ± 50 nM in the series on MDA-MB-231 [4] (setting [10]); 800 ± 200 nM in the series on MDA-MB-231 [4] (setting [11]); 1000 ± 200 nM in the series with A549 [5] (setting [12]); 1900 ± 400 nM in the series on A549 [5] (setting [13]); 400 ± 100 nM in the series on MCF-10A [6] (setting [14]); 700 ± 200 nM in the series on MCF-10A [6] (setting [15]). Further, the “quantum yield (ϕΔ) of 1O2” value in series [7] was 17.4%. In addition, the “stability in serum-free DMEM, UV–vis spectral changes, 24 h” value in [8] is reported as “spectral features of both complexes changed”. In addition, the “stability in serum-free DMEM, UV–vis spectral changes, first 4 h” value in series [8] is listed as “no spectral changes”.
As for “[Pt(Me2N-pbt)(4-COOH-pic-κN,O)] [Complex 4]”, the “photoactivity index (PI), EC50 dark / EC50 after irradiation, MDA-MB-231” value in the series on MDA-MB-231 [4] (5 min irradiation at 450 nm) is “very limited phototoxicity”. Besides, the 50% effective concentration (EC50) is 15900 ± 3600 nM in the series on MDA-MB-231 [4] (setting [10]); 42400 ± 4200 nM in the series with MDA-MB-231 [4] (setting [11]); more than 100000 nM with A549 [5] (setting [12]); more than 100000 nM with A549 [5] (setting [13]); 15000 ± 900 nM with MCF-10A [6] (setting [14]); 21700 ± 4200 nM in the series with MCF-10A [6] (setting [15]). The “photoactivity index (PI), EC50 dark / EC50 after irradiation, A549” value with A549 [5] (5 min irradiation at 450 nm) is given as “very limited phototoxicity”. Further, in the series on MCF-10A [6] (5 min irradiation at 450 nm), the “photoactivity index (PI), EC50 dark / EC50 after irradiation, MCF-10A” value is reported as “very limited phototoxicity”. For the same compound, the “stability in serum-free DMEM, UV–vis spectral changes, first 4 h” value in [8] is reported as “quantitative transformation”. Also, the solubility result in “Solubility (statements)” is “only soluble in DMSO”.
As to [Pt(Me2N-pbt)(o-dpb)], the concentration for half-maximal inhibition (IC50) – broadly, the concentration that inhibits the measured activity by half – in the series on A549 [9] (1 min of irradiation (396 nm), read-out: IC50 A549 upon irradiation) is 830 nM; with HeLa (1 min of irradiation (396 nm), read-out: IC50 HeLa upon irradiation), 1500 nM. For the same compound, the “activity in the dark, A549” value in the series with A549 [9] (dark) is “inactive”. Further, the “activity in the dark, HeLa” value in the series with HeLa (dark) was “inactive”.
Take [Pt(Me2N-pbt)(pic-κN,O)] [Complex 1]: the EC50 was 170 ± 50 nM in the series on MDA-MB-231 [4] (setting [10]); 500 ± 60 nM in the series with MDA-MB-231 [4] (setting [11]); 570 ± 30 nM in the series with A549 [5] (setting [12]); 1500 ± 100 nM in the series with A549 [5] (setting [13]); 300 ± 100 nM with MCF-10A [6] (setting [14]); 470 ± 50 nM in the series with MCF-10A [6] (setting [15]). Moreover, the “quantum yield (ϕΔ) of 1O2” value in series [7] was 13.6%. Further, in [8], the “stability in serum-free DMEM, UV–vis spectral changes, 24 h” value was “further evolved”. In addition, the “stability in serum-free DMEM, UV–vis spectral changes, first 4 h” value in [8] is “first spectral modification”.
